The source of these data is patent US9303069B2, “Peptides for treating cancer” (University of Mississippi Medical Center, priority 2014, dated 2016).

Ends that are not written are not given here.

Experiment [1] concerns SKOV3 cells. In words: Hanging drops (anchorage independent growth), SKOV3. The note with it: IRIS peptide 5 μM versus scrambled peptide. Type of experiment: cell-based, human. The protocol: Hanging drops: In this technique, the anchorage independent growth ability of cells was measured.
Hanging Drop Method. Single-cell suspensions were made from monolayer cultures in growth medium. Cell density used was 250 cells per drop (20 μl) of medium dispensed onto a 6 cm dish (Corning Life Sciences, Union City, Calif.). The dish was then inverted, the drops were held in place by surface tension, and cells accumulated at the free liquid-air interface. The dishes were placed on a tray with water and incubated under standard conditions. Hanging cell-drops formed was analyzed using microscope. All experiments were done in triplicate.

Experiment [2] relates to HME, HME/IRIS, MDA-MB-231, MDA-MB-468 and BT549 cells. In words: Survival of breast cell lines with IRIS peptide, paclitaxel or both. It is filed as cell-based, human. The note with it: all cell lines; IRIS peptide alone, 0.5 μM (HME) or 5 μM (others), 24 hours. The protocol: (§1) To investigate whether inactivating BRCA1-IRIS could sensitize TNBC to paclitaxel-induced cell death, HME cells were exposed to 0.5 μM, while HME/IRIS, MDA-MB-231, MDA-MB-468 and BT549 cells were exposed to 5 μM of IRIS peptide alone or with 5, 10 or 20 μM of paclitaxel for 24 hours. […] Again, IRIS peptide alone at these concentrations led to 50% reduction in survival of all cell lines. […] Indeed, in the presence of IRIS peptide >60%, >70% and >90% reduction in the survival of all cell lines in the presence of 5, 10 and 20 μM of paclitaxel, respectively (FIG. 84).
Cell viability measurement. Cell viability under different experimental conditions was determined using the MTS assay. Briefly, cells (2.5×10^4 cells per well) were seeded in 96-well plates and incubated overnight at 37° C. in 10% humidified CO2 atmosphere. The next day they were incubated with varying concentration of peptide, or inhibitors for 24 hours at 37° C. Cell viability was determined using cell Titer 96® Aqueous (Promega, Madison, Wis., USA) following manufacturer's instructions. Cell viability (%) was expressed as a ratio of treated cells to control cells×100. Growth inhibition was also determined by manually counting cells in five different microscopic fields. Change in cell numbers (fold) was expressed as a ratio of the means of these recording of treated cells compared to control cells×100. Each experiment was done in triplicate, repeated three separate times.

Experiment [3] deals with BRCA1-IRIS. In words: BRCA1-IRIS expression in breast cells (Western). Type of experiment: cell-based, human. The protocol: HME and HME/IRIS cells were treated with 10, 20 and 50 μM of paclitaxel for 24 hours. Compared to HME/IRIS cells, untreated HME cells express very low level of BRCA1-IRIS (FIG. 68, left). […] Both EGF and NRG1, which were secreted at higher levels from untreated HME/IRIS cells, remained high after paclitaxel (until ˜50 μM, FIG. 68, left), whereas in HME cells, both were induced by low paclitaxel treatment (FIG. 68, left). Consistently, in HME/IRIS cells EGFR was phosphorylated on Y1173 (activated by EGF when EGFR is in complex with ErbB2) and ErbB2 on Y1248 (activated by NRG1 when ErbB2 is in complex with ErbB3) remained the same after paclitaxel treatment (until ˜50 μM, FIG. 68, left). Phosphorylated EGFR-Y1173 and ErbB2-Y1248 was only observed in paclitaxel treated HME cells, especially at low concentration (FIG. 68, left).
Survived/paclitaxel-resistant cells were then propagated in the absence of paclitaxel and analyzed. Again, the intrinsically high level of BRCA1-IRIS was not affected by paclitaxel in HME/IRIS cells (FIG. 69, left). […] The expressions of EGFR, ErbB2 and ErbB3 were high in HME/IRIS and HME cells (FIG. 69, left). Despite an intrinsic increase in HME/IRIS and paclitaxel-acquired increase in HME cells in AKT activation, FOXO inactivation/degradation and thus activation increase in CyclinD1, survivin, Bcl-2, Bcl-xL and NF-κB was observed (FIG. 69, right).
To test that hypothesis, an intron 11 peptide (right in FIG. 26) fused to a cell/nucleus penetrating signal at its N-terminus (left in FIG. 26) was synthesized (hereafter IRIS peptide). First, to assess the effect of this IRIS peptide, equal numbers of HME, HME/IRIS, MDA-MB-231, MDA-MB-468 and BT549 cells were exposed to increasing concentrations of scrambled or IRIS peptide for 48 hours. […] It is possible that preventing BRCA1-IRIS-X complex formation destabilizes BRCA1-IRIS and perhaps leads to its degradation.
as §1
To relate the effect of IRIS peptide on cell survival to the effect of BRCA1-IRIS on AKT and ERK survival pathways, MDA-MB-231 and MDA-MB-468 were treated with vehicle, 5 μM of IRIS peptide, 10 μM LY294002, 10 μM PD98059 for 24 hours or were transfected with BRCA1-IRIS siRNA for 72 hours.

Experiment [4] concerns BRCA1-IRIS and survivin. In words: IHC of MDA-MB-468 tumors for BRCA1-IRIS and survivin. Type of experiment: in vivo, mice. The note with it: MDA-MB-468 tumors after treatment. The source says:
To study that on the molecular level, sections from these tumors were stained with H&E or for BRCA1-IRIS or survivin using immunohistochemistry. […] Accordingly, it is proposed that inactivating BRCA1-IRIS in TNBC patients might sensitize to lower paclitaxel concentrations to avoid the adverse side effects and also to prevent the recurrence of these tumors at a later point.
Immunohistochemistry (IHC). Breast tissue microarrays comprised of normal, DCIS, invasive and metastatic were purchased from US Biomax, Inc. Paraffin embedded tissue sections were de-waxed in xylene and rehydrated in alcohol. Antigen-retrieval: for FOXO3a and survivin was by heating the slides in citrate buffer (10 μM, pH 6.0) using microwave (Power level 4) for 10 minutes, for BRCA1-IRIS by incubating slides in pepsin (10 μM) for 20 min at 37° C. Endogenous peroxidase activity was suppressed by treating the slides with 3% H2O2 for 10 min. Slides were then incubated for 1 hour at room temperature with antibodies to human FOXO3a or survivin (Cell Signaling Technology, USA 1:400), or overnight at 4° C. with monoclonal anti-human BRCA1-IRIS (1:75). Vectastain Elite ABC Kit was used to develop the staining using horseradish peroxidase labeled secondary antibodies (1 hour at room temperature).

In experiment [5] the test system is BT549 cells. The note with it: 48 h.
Procedure: All cell lines were exposed to increasing concentrations of paclitaxel and BRCA1-IRIS expression, and cells' viability was then measured.
Cell viability measurement. Cell viability under different experimental conditions was determined using the MTS assay. Briefly, cells (2.5×10^4 cells per well) were seeded in 96-well plates and incubated overnight at 37° C. in 10% humidified CO2 atmosphere. The next day they were incubated with varying concentration of peptide, or inhibitors for 24 hours at 37° C. Cell viability was determined using cell Titer 96® Aqueous (Promega, Madison, Wis., USA) following manufacturer's instructions. Cell viability (%) was expressed as a ratio of treated cells to control cells×100. […] Each experiment was done in triplicate, repeated three separate times.

Turning to “RRIRPRPPRLPRPRPRPLPFPRPGIGTRFLCLPQSIYRSELNVYAFGEHILQISKYS [IRIS peptide]”, in experiment [1], the “ability to form hanging drops” value is “complete loss of ability”. In experiment [2], this sequence showed a reduction in survival of 50%. In addition, the BRCA1-IRIS expression result is “significant reduction in BRCA1-IRIS expression” in experiment [3] (HME, HME/IRIS and TNBC cell lines, 5 μM of IRIS peptide for 24 hours); “significantly decreased in both cell lines” in experiment [3] (MDA-MB-231 and MDA-MB-468, 5 μM IRIS peptide, 10 μM LY294002 or 10 μM PD98059 24 hours, siRNA 72 hours); “completely abolished BRCA1-IRIS expression in all cell lines” in experiment [3] (all cell lines, IRIS peptide 0.5 μM (HME) or 5 μM (others), 24 hours). For the same sequence, the “BRCA1-IRIS and survivin expression in tumors (IHC)” value in experiment [4] was “almost completely absent”. In experiment [5], this sequence registered an IC50 of around 5 µM.

In general, IC50 refers to the concentration that inhibits the measured activity by half. A lower IC50 goes with greater potency.
